Laboratory results taken from PubChem BioAssay (NCI).
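48-hour exposure; five concentrations; linearly interpolated endpoints. Here, GI50 denotes the concentration required for 50% inhibition of growth. TGI: concentration producing complete growth inhibition.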

Legend:
Test in all cases: NCI-60 cell line screen, 48 h
[1] = system: SF-268 CNS
[2] = system: COLO 205 colon
[3] = system: NCI-H23 lung
[4] = system: CCRF-CEM leukemia
[5] = system: K-562 leukemia
[6] = system: NCI/ADR-RES ovarian
[7] = system: A549 NSCLC
[8] = system: HS 578T breast
[9] = system: LOX IMVI melanoma
[10] = system: HCT-116 colon
[11] = system: M14 melanoma
[12] = system: UACC-62 melanoma
[13] = system: MDA-MB-231 breast
[14] = system: IGROV1 ovarian
[15] = system: SK-MEL-5 melanoma
[16] = system: HCT-15 colon
[17] = system: SNB-19 CNS
[18] = system: EKVX NSCLC
[19] = system: NCI-H460 lung
[20] = system: T-47D breast
[21] = system: CAKI-1 renal
[22] = system: OVCAR-8 ovarian
[23] = system: MALME-3M melanoma
[24] = system: BT-549 breast
[25] = system: OVCAR-4 ovarian
[26] = system: DU-145 prostate
[27] = system: OVCAR-5 ovarian
[28] = system: HT29 colon
[29] = system: SK-OV-3 ovarian
[30] = system: SF-295 CNS
[31] = system: SN12C renal
[32] = system: SNB-75 CNS
[33] = system: MCF7 breast
[34] = system: SW-620 colon
[35] = system: A498 renal
[36] = system: U251 CNS
[37] = system: HOP-62 NSCLC
[38] = system: UO-31 renal
[39] = system: RXF 393 renal
[40] = system: TK-10 renal
[41] = system: ACHN renal
[42] = system: MDA-MB-435
[43] = system: SF-539 CNS
[44] = system: NCI-H226 lung
[45] = system: OVCAR-3 ovarian
[46] = system: NCI-H522 lung
[47] = system: SR leukemia
[48] = system: 786-0 renal
[49] = system: MOLT-4 leukemia
[50] = system: HL-60(TB) leukemia
[51] = system: HCC-2998 colon
[52] = system: SK-MEL-28 melanoma
[53] = system: PC-3 prostate
[54] = system: SK-MEL-2 melanoma
[55] = system: UACC-257 melanoma
[56] = system: HOP-92 NSCLC
[57] = system: KM12 colon
[58] = system: RPMI-8226 leukemia

Structure (SMILES): O=C(O[C@H]1CN[C@H](C#Cc2cc3ncnc(Nc4ccc5c(cnn5Cc5ccccc5)c4)c3s2)C1)N1CCOCC1
- GI50 [1]: 4.43 µM
- TGI [1]: 24.5 µM
- GI50 [2]: 3.78 µM
- TGI [2]: 8.7 µM
- GI50 [3]: 11.3 µM
- TGI [3]: > 25 µM
- GI50 [4]: 3.15 µM
- TGI [4]: > 25 µM
- GI50 [5]: 6.99 µM
- TGI [5]: > 25 µM
- GI50 [6]: 9.55 µM
- TGI [6]: > 25 µM
- GI50 [7]: 3.71 µM
- TGI [7]: > 25 µM
- GI50 [8]: 0.78 µM
- TGI [8]: > 17 µM
- GI50 [9]: 5.88 µM
- TGI [9]: > 25 µM
- GI50 [10]: 3.74 µM
- TGI [10]: > 25 µM
- GI50 [11]: 5.22 µM
- TGI [11]: > 25 µM
- GI50 [12]: 5.74 µM
- TGI [12]: > 25 µM
- GI50 [13]: 1.8 µM
- TGI [13]: > 25 µM
- GI50 [14]: 0.805 µM
- TGI [14]: > 18.7 µM
- GI50 [15]: 6.18 µM
- TGI [15]: > 25 µM
- GI50 [16]: 2.37 µM
- TGI [16]: > 25 µM
- GI50 [17]: 7.71 µM
- TGI [17]: > 25 µM
- GI50 [18]: 0.234 µM
- TGI [18]: > 11.4 µM
- GI50 [19]: 7.26 µM
- TGI [19]: > 25 µM
- GI50 [20]: 2.89 µM
- TGI [20]: > 25 µM
- GI50 [21]: 0.602 µM
- TGI [21]: > 11.3 µM
- GI50 [22]: 6.4 µM
- TGI [22]: > 25 µM
- GI50 [23]: 4.79 µM
- TGI [23]: 23.7 µM
- GI50 [24]: 3.35 µM
- TGI [24]: 9.29 µM
- GI50 [25]: 5.3 µM
- TGI [25]: > 25 µM
- GI50 [26]: 2.16 µM
- TGI [26]: > 22.9 µM
- GI50 [27]: 1.64 µM
- TGI [27]: > 25 µM
- GI50 [28]: 3.92 µM
- TGI [28]: 11.5 µM
- GI50 [29]: 0.0182 µM
- TGI [29]: > 12.7 µM
- GI50 [30]: 7.49 µM
- TGI [30]: > 25 µM
- GI50 [31]: 2.46 µM
- TGI [31]: > 25 µM
- GI50 [32]: 2.01 µM
- TGI [32]: > 23 µM
- GI50 [33]: 5.91 µM
- TGI [33]: > 25 µM
- GI50 [34]: 8.57 µM
- TGI [34]: > 25 µM
- GI50 [35]: 0.998 µM
- TGI [35]: 15.3 µM
- GI50 [36]: 6.03 µM
- TGI [36]: > 25 µM
- GI50 [37]: 4.86 µM
- TGI [37]: > 25 µM
- GI50 [38]: 0.536 µM
- TGI [38]: 13.3 µM
- GI50 [39]: 1.15 µM
- TGI [39]: 11.5 µM
- GI50 [40]: 0.131 µM
- TGI [40]: 1.83 µM
- GI50 [41]: 0.586 µM
- TGI [41]: > 25 µM
- GI50 [42]: 6.08 µM
- TGI [42]: > 25 µM
- GI50 [43]: 4.18 µM
- TGI [43]: > 19.1 µM
- GI50 [44]: 5.37 µM
- TGI [44]: > 25 µM
- GI50 [45]: 3.1 µM
- TGI [45]: 10.6 µM
- GI50 [46]: 0.195 µM
- TGI [46]: 4.26 µM
- GI50 [47]: 7.53 µM
- TGI [47]: > 25 µM
- GI50 [48]: 7.16 µM
- TGI [48]: > 25 µM
- GI50 [49]: 4.22 µM
- TGI [49]: > 23.6 µM
- GI50 [50]: 6.74 µM
- TGI [50]: > 20.4 µM
- GI50 [51]: 5 µM
- TGI [51]: > 25 µM
- GI50 [52]: 9.34 µM
- TGI [52]: > 25 µM
- GI50 [53]: 7.36 µM
- TGI [53]: > 25 µM
- GI50 [54]: 4.31 µM
- TGI [54]: 19.3 µM
- GI50 [55]: 7.45 µM
- TGI [55]: > 25 µM
- GI50 [56]: 1.29 µM
- TGI [56]: > 25 µM
- GI50 [57]: 4.63 µM
- TGI [57]: 10.5 µM
- GI50 [58]: 5.38 µM
- TGI [58]: 20.4 µM

Structure (SMILES): O=CC1C(Cl)=Nc2nc3ccccc3n2C1c1ccc([N+](=O)[O-])cc1 (centres undefined)
- TGI [1]: 62.2 µM
- TGI [2]: > 100 µM
- TGI [3]: 57.1 µM
- TGI [4]: > 100 µM
- TGI [5]: 78.5 µM
- TGI [6]: > 100 µM
- TGI [7]: > 100 µM
- TGI [8]: > 100 µM
- TGI [10]: > 100 µM
- TGI [11]: > 100 µM
- TGI [12]: 35.6 µM
- TGI [13]: 45.4 µM
- TGI [14]: 26 µM
- TGI [15]: 37.9 µM
- TGI [17]: 36.3 µM
- TGI [18]: 53.5 µM
- TGI [19]: 94 µM
- TGI [20]: 4.19 µM
- TGI [21]: 7.65 µM
- TGI [22]: 27.7 µM
- TGI [23]: 31.6 µM
- TGI [24]: 2.58 µM
- TGI [25]: 30.9 µM
- TGI [26]: 32.4 µM
- TGI [27]: > 100 µM
- TGI [30]: 50.7 µM
- TGI [31]: 51.4 µM
- TGI [32]: 5.28 µM
- TGI [33]: 67.9 µM
- TGI [34]: > 100 µM
- TGI [35]: 47.4 µM
- TGI [36]: 44.5 µM
- TGI [37]: > 100 µM
- TGI [38]: 14.8 µM
- TGI [39]: 7.15 µM
- TGI [40]: 16.1 µM
- TGI [42]: 27.8 µM
- TGI [43]: > 100 µM
- TGI [44]: 9.27 µM
- TGI [45]: > 100 µM
- TGI [46]: 12.8 µM
- TGI [47]: 5.97 µM
- TGI [48]: > 100 µM
- TGI [49]: 6.29 µM
- TGI [50]: 20.2 µM
- TGI [51]: 49.4 µM
- TGI [52]: 5.09 µM
- TGI [53]: > 100 µM
- TGI [54]: 21.4 µM
- TGI [55]: 31.5 µM
- TGI [56]: 20.7 µM
- TGI [57]: 82.9 µM
- TGI [58]: > 100 µM
